# Test results published in patent US4370474A, “11-Deoxy-carminomycin compounds” (Farmitalia Carlo Erba S.p.A., priority 1978, dated 1983).
# Counter-ions that a name gives are not always drawn. Like-named read-outs stand apart in the source and are kept apart here.
# Tests used:
# P 388 leukemia = assay: Antitumor activity on P 388 leukemia in mice; format: in vivo; settings: for P-388 Toxic deaths: evaluated on macroscopic findings
# Method: (§1) The new antibiotics W, Y and Z have been tested against HeLa cells in vitro (time of exposure to the drugs: 24 hours), and on L 1210 and P 388 leukemia in mice in comparison with daunorubicin.
# (§2) (b) Mice were treated i.p. on day 1 after tumor cell inoculation.
# (§3) (c) Evaluated on the basis of macroscopic findings.
# HeLa cells = assay: Effect on HeLa cells viability in vitro; format: cell-based; settings: Homo sapiens, read-out: Effect of HeLa cells viability in vitro ID50
# Method: as §1
# (a) HeLa cells were exposed to the drugs for 24 hrs, then plated.
# L 1210 leukemia = assay: Antitumor activity on L 1210 leukemia in mice; format: in vivo; settings: for L-1210 Toxic deaths: evaluated on macroscopic findings
# Method: as §1, §2, §3
# Solubility = format: physicochemical; settings: aglycone from acid hydrolysis
# [1] = 1.0 mg/kg i.p. on day 1 after tumor cell inoculation
# [2] = HeLa cells exposed to the drugs for 24 hrs, then plated
# [3] = 1.2 mg/kg i.p. on day 1 after tumor cell inoculation
# [4] = 1.9 mg/kg i.p. on day 1 after tumor cell inoculation
# [5] = 2.9 mg/kg i.p. on day 1 after tumor cell inoculation
# [6] = 4.4 mg/kg i.p. on day 1 after tumor cell inoculation
# [7] = 6.6 mg/kg i.p. on day 1 after tumor cell inoculation
smiles,measurement,setting,value
C[C@@H]1O[C@@H](O[C@H]2C[C@](O)(C(=O)CO)Cc3cc4c(c(O)c32)C(=O)c2c(O)cccc2C4=O)C[C@H](N)[C@@H]1O [Antibiotic W.HCl],P-388 Toxic deaths,P 388 leukemia; 1.0 mg/kg i.p. on day 1,0/10
same,P-388 T/C,P 388 leukemia; [1],159%
same,P-388 Toxic deaths,P 388 leukemia; 1.5 mg/kg i.p. on day 1,0/20
same,P-388 T/C,P 388 leukemia; 1.5 mg/kg i.p. on day 1 after tumor cell inoculation,172%
same,P-388 Toxic deaths,P 388 leukemia; 2.25 mg/kg i.p. on day 1,0/20
same,P-388 T/C,P 388 leukemia; 2.25 mg/kg i.p. on day 1 after tumor cell inoculation,163%
same,P-388 Toxic deaths,P 388 leukemia; 3.4 mg/kg i.p. on day 1,0/10
same,P-388 T/C,P 388 leukemia; 3.4 mg/kg i.p. on day 1 after tumor cell inoculation,190%
same,P-388 Toxic deaths,P 388 leukemia; 5.0 mg/kg i.p. on day 1,1/9
same,P-388 T/C,P 388 leukemia; 5.0 mg/kg i.p. on day 1 after tumor cell inoculation,204%
same,IC50,HeLa cells; [2],8.8 ng/mL
CC(=O)[C@]1(O)Cc2cc3c(c(O)c2[C@@H](O[C@H]2C[C@H](N)[C@H](O)[C@H](C)O2)C1)C(=O)c1c(O)cccc1C3=O [Antibiotic Y.HCl],P-388 T/C,P 388 leukemia; [3],145%
same,P-388 T/C,P 388 leukemia; [4],159%
same,IC50,HeLa cells; [2],9.6 ng/mL
same,L-1210 T/C,L 1210 leukemia; 0.8 mg/kg i.p. on day 1 after tumor cell inoculation,111%
same,L-1210 T/C,L 1210 leukemia; [3],128%
same,L-1210 T/C,L 1210 leukemia; [4],122%
same,L-1210 Toxic deaths,L 1210 leukemia; 2.9 mg/kg i.p. on day 1,8/10
same,L-1210 T/C,L 1210 leukemia; [5],111%
CC[C@]1(O)Cc2cc3c(c(O)c2[C@@H](O[C@H]2C[C@H](N)[C@H](O)[C@H](C)O2)C1)C(=O)c1c(O)cccc1C3=O [Antibiotic Z.HCl],P-388 T/C,P 388 leukemia; [1],140%
same,P-388 T/C,P 388 leukemia; 2.0 mg/kg i.p. on day 1 after tumor cell inoculation,140%
same,P-388 Toxic deaths,P 388 leukemia; 4.4 mg/kg i.p. on day 1,7/8
same,P-388 T/C,P 388 leukemia; [6],100%
same,IC50,HeLa cells; [2],15 ng/mL
same,L-1210 T/C,L 1210 leukemia; [5],125%
same,L-1210 Toxic deaths,L 1210 leukemia; 4.4 mg/kg i.p. on day 1,2/10
same,L-1210 T/C,L 1210 leukemia; [6],131%
same,L-1210 Toxic deaths,L 1210 leukemia; 6.6 mg/kg i.p. on day 1,5/10
same,L-1210 T/C,L 1210 leukemia; [7],137%
"COc1cccc2c1C(=O)c1c(O)c3c(c(O)c1C2=O)C[C@@](O)(C(C)=O)C[C@@H]3O[C@H]1C[C@H](N)[C@H](O)[C@H](C)O1 [Daunorubicin.HCl, daunorubicin, reference compound]",P-388 Toxic deaths,P 388 leukemia; 2.9 mg/kg i.p. on day 1,2/8
same,P-388 T/C,P 388 leukemia; [5],170%
same,P-388 Toxic deaths,P 388 leukemia; 4.4 mg/kg i.p. on day 1,6/8
same,P-388 T/C,P 388 leukemia; [6],175%
same,P-388 Toxic deaths,P 388 leukemia; 6.6 mg/kg i.p. on day 1,7/8
same,P-388 T/C,P 388 leukemia; [7],160%
same,IC50,"HeLa cells; HeLa, 24 h",7.5 ng/mL
same,L-1210 T/C,L 1210 leukemia; [5],144-150%
same,L-1210 Toxic deaths,L 1210 leukemia; 4.4 mg/kg i.p. on day 1,1/20
same,L-1210 T/C,L 1210 leukemia; [6],140-162%
same,L-1210 Toxic deaths,L 1210 leukemia; 6.6 mg/kg i.p. on day 1,3/19
same,L-1210 T/C,L 1210 leukemia; [7],144-162%
CC(=O)[C@]1(O)Cc2cc3c(c(O)c2[C@@H](O)C1)C(=O)c1c(O)cccc1C3=O [aglycone of the antibiotic Y],solubility in water,Solubility,water insoluble
